Literature values in US12150927B2, “Use of cannabidiolic acid in the treatment of autism spectrum disorder and associated disorders” (GW Research Limited, priority 2016, dated 2024).

Conditions: background statement; cited from earlier work

For `Cc1c(C(=O)NN2CCCCC2)nn(-c2ccc(Cl)cc2Cl)c1-c1ccc(Cl)cc1` [rimonabant], the side effects is listed as “serious side effects such as suicide ideation”.
